Source: ChEMBL document CHEMBL1157265, “Chaetoglobosin U, a cytochalasan alkaloid from endophytic Chaetomium globosum IFB-E019” (J Nat Prod, 2006)

Tested on: KB
Assay: Cytotoxicity against human KB cells after 48 hrs by MTT assay
Assay type: functional, cell-based

Row | SMILES | IC50 [µM]
1 | C/C1=C\[C@@H](C)C/C=C/[C@H]2[C@@H]3O[C@]3(C)[C@@H](C)[C@H]3[C@H](Cc4c[nH]c5ccccc45)NC(=O)[C@]32C(=O)CCC(=O)C1=O [CHAETOGLOBOSIN C] | 34
2 | CC1=C(C)[C@H]2[C@H](Cc3c[nH]c4ccccc34)NC(=O)[C@]23C(=O)CC[C@H](O)C(=O)/C(C)=C/[C@@H](C)C/C=C/[C@H]3[C@@H]1O [CHAETOGLOBOSIN E] | 40
3 | C/C1=C\[C@@H](C)C/C=C/[C@H]2[C@@H]3O[C@]3(C)[C@@H](C)[C@H]3[C@H](Cc4c[nH]c5ccccc45)NC(=O)[C@]32C(=O)CC[C@H](O)C1=O [CHAETOGLOBOSIN F] | 52
4 | CC1=C(O)C(=O)[C@@H]2CC(=O)[C@@]34C(=O)N[C@@H](Cc5c[nH]c6ccccc56)[C@@H]3[C@H](C)[C@@]3(C)O[C@H]3[C@@H]4/C=C/C[C@H](C)[C@@H]12 [CHAETOGLOBOSIN U] | 16
5 | C/C1=C\[C@@H](C)C/C=C/[C@H]2[C@@H]3O[C@]3(C)[C@@H](C)[C@H]3[C@H](Cc4c[nH]c5ccccc45)NC(=O)[C@]32c2ccc([nH]2)C(=O)C1=O [PENOCHALASIN A] | 48
